Experimental findings from US20250042881A1, “CCR6 RECEPTOR MODULATORS” (Idorsia Pharmaceuticals Ltd, priority 2021, published 2025) are described below.

As usually defined, the IC50 is the concentration at which inhibition is half-maximal.

In the assay the target is T1, human CCR6 (Homo sapiens, UniProt P51684).
T1 construct: expressed in transfected cells; host or cells: HEK-293
T1 sequence (P51684 1-374): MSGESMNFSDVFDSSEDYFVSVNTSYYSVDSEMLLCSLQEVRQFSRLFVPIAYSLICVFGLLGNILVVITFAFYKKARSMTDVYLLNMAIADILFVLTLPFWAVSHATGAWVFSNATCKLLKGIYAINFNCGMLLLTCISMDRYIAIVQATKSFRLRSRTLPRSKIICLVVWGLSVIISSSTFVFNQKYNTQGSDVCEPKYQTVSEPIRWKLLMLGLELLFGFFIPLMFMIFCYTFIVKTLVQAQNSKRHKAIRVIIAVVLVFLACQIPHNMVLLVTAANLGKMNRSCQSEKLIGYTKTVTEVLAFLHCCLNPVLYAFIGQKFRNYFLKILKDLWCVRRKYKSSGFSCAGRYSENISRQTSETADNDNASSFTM
Briefly: FLIPR assay: inhibition of CCL20-induced calcium signal in HEK-293 cells expressing human CCR6. The format is cell-based. Particulars: engineered HEK-293 cells expressing human CCR6; agonist CCL20 10 nM; 30 min preincubation; Fluo-8-AM; mean values if determined several times. The method, then:
FLIPR assay: The bioactivity of compounds is tested in a fluorometric imaging plate reader (FLIPR: Molecular Devices) using engineered HEK-293 cells expressing the human CCR6 (GenBank: AY242126). Frozen cells are plated on Poly-L-Lysine precoated 384-well plates 2 days prior to bioassay in DMEM medium supplemented with 10% FCS and 1% Penicillin-Streptomycin. At the day of bioassay, cell supernatant is discarded and cells are dye loaded for 30 minutes at room temperature in the dark with Fluo-8-AM (Focus Biomolecules) in Hanks Balanced Salt Solution (Gibco), buffered with 20 mM Hepes at pH 6.75 and supplemented with 0.05% BSA. This buffer, but lacking the dye, is also used for washing and compound dilution steps (assay buffer). Cells are washed free of excess dye with a wash-station (Biotek), leaving 40 microliter of assay buffer at the end. Cells were incubated for 15 minutes at room temperature in the dark, before adding compounds. Stock solutions of test compounds are made up at a concentration of 10 mM in DMSO, and serially diluted first in DMSO and then transferred in assay buffer to concentrations required for inhibition dose response curves. After a 45 minute incubation period in assay buffer at room temperature, 10 microliters of each compound dilution are transferred from a compound plate to the plate containing the recombinant cells in the FLIPR instrument according to the manufacturer's instructions. After cells and compounds were preincubated for 30 minutes at room temperature in the dark, 10 microliter agonist CCL20 (Peprotech) at a final concentration of 10 nM is added, again using the FLIPR instrument. Changes in fluorescence are monitored before and after addition of the test compounds and agonist. Emission peak values above base level after CCL20 addition are exported after base line subtraction. The calculated IC50 values may fluctuate depending on the daily assay performance. Fluctuations of this kind are known to those skilled in the art. In the case where IC50 values have been determined several times for the same compound, mean values are given.
For the compound `CC(C)c1ccc([C@](O)(c2cnnc(-c3nc(C4CCOCC4)n(C(C)C)n3)c2)C2(C)CN(C)C2)cc1` [Example 51, (R)-(1,3-Dimethyl-azetidin-3-yl)-(4-isopropyl-phenyl)-{6-[1-isopropyl-5-(tetrahydro-pyran-4-yl)-1H-[1,2,4]triazol-3-yl]-pyridazin-4-yl}-methanol], the IC50 amounted to 578 nM.

As to `CN1CC(C)([C@](O)(c2ccc(OC(F)(F)F)cc2)c2cncc(-c3nc(C4CCOCC4)n(C4CC4)n3)c2)C1` [Example 4, (R)-{5-[1-Cyclopropyl-5-(tetrahydro-pyran-4-yl)-1H-[1,2,4]triazol-3-yl]-pyridin-3-yl}-(1,3-dimethyl-azetidin-3-yl)-(4-trifluoromethoxy-phenyl)-methanol], the IC50 stood at 114 nM.

Regarding `CC(C)c1ccc([C@](O)(c2cncc(-c3nc(C4CCOCC4)n(C4CC4)n3)c2)C2(C)CN(CC(F)F)C2)cc1` [Example 35, (R)-{5-[1-Cyclopropyl-5-(tetrahydro-pyran-4-yl)-1H-[1,2,4]triazol-3-yl]-pyridin-3-yl}-[1-(2,2-difluoro-ethyl)-3-methyl-azetidin-3-yl]-(4-isopropyl-phenyl)-methanol], the IC50 is 72.6 nM.

As to `CC(C)c1ccc([C@](O)(c2cncc(-c3nc(C4CCOCC4)n(C4CC4)n3)c2)C2(C)CN(C)C2)cc1` [Example 14, (R)-{5-[1-Cyclopropyl-5-(tetrahydro-pyran-4-yl)-1H-[1,2,4]triazol-3-yl]-pyridin-3-yl}-(1,3-dimethyl-azetidin-3-yl)-(4-isopropyl-phenyl)-methanol], the IC50 is 118 nM.

With `CCn1nc(-c2cncc([C@@](O)(c3ccc(C(C)C)cc3)C3(C)CN(C)C3)c2)nc1C1CCOCC1` [Example 18, (R)-(1,3-Dimethyl-azetidin-3-yl)-{5-[1-ethyl-5-(tetrahydro-pyran-4-yl)-1H-[1,2,4]triazol-3-yl]-pyridin-3-yl}-(4-isopropyl-phenyl)-methanol], the IC50 is 166 nM.

`CC(C)c1ccc([C@](O)(c2cnc(F)c(-c3nc([C@H]4CC[C@H](O)CC4)n(C4CC4)n3)c2)C2(C)CN(C)C2)cc1` [Example 39, 4-(2-Cyclopropyl-5-{5-[(R)-(1,3-dimethyl-azetidin-3-yl)-hydroxy-(4-isopropyl-phenyl)-methyl]-2-fluoro-pyridin-3-yl}-2H-[1,2,4]triazol-3-yl)-trans-cyclohexanol]: the IC50 was 76.6 nM.

`CC(C)c1ccc([C@](O)(c2cncc(-c3nc([C@@](C)(O)C(F)(F)F)n(C4CC4)n3)c2)C2(C)CN(C)C2)cc1` [Example 9, (R)-2-(2-Cyclopropyl-5-{5-[(R)-(1,3-dimethyl-azetidin-3-yl)-hydroxy-(4-isopropyl-phenyl)-methyl]-pyridin-3-yl}-2H-[1,2,4]triazol-3-yl)-1,1,1-trifluoro-propan-2-ol]: the half-inhibitory concentration (IC50) was determined as 22.2 nM.

As for `CC(C)c1ccc([C@](O)(c2cncc(-c3nc(C4CCOCC4)n(C4CCCCC4)n3)c2)C2(C)CN(C)C2)cc1` [Example 15, (R)-{5-[1-Cyclohexyl-5-(tetrahydro-pyran-4-yl)-1H-[1,2,4]triazol-3-yl]-pyridin-3-yl}-(1,3-dimethyl-azetidin-3-yl)-(4-isopropyl-phenyl)-methanol], the IC50 worked out at 16.8 nM.

Regarding `CC(=O)N1CCC(c2nc(-c3cncc([C@@](O)(c4ccc(C(C)C)cc4)C4(C)CN(C)C4)c3)nn2C2CC2)CC1` [Example 32, 1-[4-(2-Cyclopropyl-5-{5-[(R)-(1,3-dimethyl-azetidin-3-yl)-hydroxy-(4-isopropyl-phenyl)-methyl]-pyridin-3-yl}-2H-[1,2,4]triazol-3-yl)-piperidin-1-yl]-ethanone], the IC50 is 181 nM.

In the case of `CC(C)c1ccc([C@](O)(c2cncc(-c3nc(C4CCNC(=O)C4)n(C(C)C)n3)c2)C2(C)CN(C)C2)cc1` (stereo partly drawn) [Example 46, 4-(5-{5-[(R)-(1,3-Dimethyl-azetidin-3-yl)-hydroxy-(4-isopropyl-phenyl)-methyl]-pyridin-3-yl}-2-isopropyl-2H-[1,2,4]triazol-3-yl)-piperidin-2-one], the IC50 worked out at 161 nM.
